Data as given in the NIST ThermoML archive (doi:10.1016/j.jct.2008.12.022).
± gives the expanded uncertainty stated by the source.

Details: 101.33 kPa, Liquid; for viscosity: Capillary tube (Ostwald / Ubbelohde) method; for mass density: Pycnometric method

viscosity (303.15 K) | mass density (303.15 K) | viscosity (313.15 K) | mass density (313.15 K) | viscosity (323.15 K) | mass density (323.15 K) | viscosity (333.15 K) | mass density (333.15 K) | viscosity (343.15 K) | mass density (343.15 K) | Compound
32.4 ± 0.73 mPa·s | 1029 ± 1 kg/m3 | 19.12 ± 0.45 mPa·s | 1021 ± 1 kg/m3 | 12.1 ± 0.28 mPa·s | 1014 ± 1 kg/m3 | 8.19 ± 0.18 mPa·s | 1006 ± 1 kg/m3 | 5.704 ± 0.13 mPa·s | 999 ± 1 kg/m3 | CC(O)CO (stereo not given) [1,2-propanediol]
29.27 ± 0.7 mPa·s | 1116 ± 2 kg/m3 | 18.96 ± 0.46 mPa·s | 1109 ± 2 kg/m3 | 12.96 ± 0.31 mPa·s | 1101 ± 2 kg/m3 | 9.288 ± 0.22 mPa·s | 1093 ± 2 kg/m3 | 6.906 ± 0.17 mPa·s | 1086 ± 2 kg/m3 | OCCOCCOCCO [triethylene glycol]
